In patent US7863449B2, “Modulators of muscarinic receptors” (Vertex Pharmaceuticals Incorporated, priority 2004, dated 2011):

How the values were obtained:
[1] = target: T1, M1 muscarinic receptor (Homo sapiens, UniProt P11229); assay: Functional mobilization of intracellular calcium (FLIPR), M1-CHO cells; assay type: cell-based; settings: for Emax: 100% efficacy is the maximum response obtained using Carbachol as a control; for M1 Activity: M1-CHO cells, FLIPR calcium mobilization
T1 construct: expressed in transfected cells; host or cells: CHO (M1-CHO)
T1 sequence (P11229 1-460): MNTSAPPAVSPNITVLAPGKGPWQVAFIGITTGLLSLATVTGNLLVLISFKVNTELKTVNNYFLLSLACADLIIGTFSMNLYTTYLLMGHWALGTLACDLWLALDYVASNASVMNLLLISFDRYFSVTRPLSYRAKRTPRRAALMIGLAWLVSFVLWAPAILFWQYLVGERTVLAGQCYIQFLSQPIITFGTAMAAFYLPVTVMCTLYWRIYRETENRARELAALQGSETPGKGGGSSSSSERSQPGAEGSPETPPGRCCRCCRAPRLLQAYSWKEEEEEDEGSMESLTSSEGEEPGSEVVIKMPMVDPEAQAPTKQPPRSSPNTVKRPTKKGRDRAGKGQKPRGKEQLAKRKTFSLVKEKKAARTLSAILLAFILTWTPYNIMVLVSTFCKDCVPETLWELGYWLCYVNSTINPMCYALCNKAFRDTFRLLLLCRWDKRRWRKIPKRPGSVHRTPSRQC
Description: (§1) Functional Mobilization of Intracellular Calcium to Determine Muscarinic Receptor Activity:
(§2) CHO cells expressing muscarinic receptors (M1 to M5) are grown as monolayers in tissue culture flasks at 37° C. in a humidified atmosphere containing 5% CO2 and passaged every 3-5 days. The growth media is Dulbecco's modified eagles medium (DMEM, Gibco Cat# 12430-054), containing 25 mM Hepes and supplemented with Fetal Bovine Serum (Hyclone, cat# SH30071.03), 0.1 mM of MEM non-essential amino acids (GIBCO, Cat# 11140-050), 1 mM MEM Sodium Pyruvate (GIBCO Cat# 11360-070) and 100 units/ml of Penicillin G and 100 μg/ml of Streptomycin (GIBCO Cat# 15140-122). The recombinant muscarinic receptor cell lines are grown under antibiotic pressure with media containing 25 μg/ml zeocin and 500 μg/ml G418 (M1-CHO), 4 μg/ml puromycin, 50 μg/ml zeocin and 2.5 μg/ml blasticidin (M2 and M4-CHO) or 50 μg/ml zeocin and 4 μg/ml puromycin (M3 and M5-CHO).
(§3) Cells are harvested at 80-90% confluence using Versene (GIBCO Cat# 15040-066), collected by centrifugation and seeded 18-24 hrs prior to running the calcium assay at a density of 5,000-10,000 cells/well in […], clear-bottomed 384-well plates (BD Biocoat, poly-D-lysine, Cat#356663). The day of the experiment, the cells are washed with a plate washer (Bioteck Instruments, ELX 405) using bath1 buffer (140-mM NaCl, 4.5-mM KCl, 2-mM CaCl2, 1-mM MgCl2, 10-mM Hepes-Na, 10-mM Glucose, pH 7.4, with NaOH) containing 1 mM Probenecid. Next, the calcium dye Fluo-3 (25 μl/well of Fluo-3 AM at 4 μM, Molecular Probes F-1241, in Bath 1 buffer containing 1 mM Probenecid) is added to the 25 μl of Bath 1 remaining in each well after the plate wash and the dye is loaded at 37° C. in the tissue culture incubator for 60-90 min. The fluorescent dye is removed using the plate washer with Bath 1 containing 1 mM Probenecid, leaving 25 μl/well of this solution after the wash. Alternatively, cells can be loaded with the calcium indicator from Molecular Devices (Calcium 3 Assay Reagents, Cat # R7181) adding 5 μl of a 5× solution dye in Bath 1 containing 1 mM Probenecid (10 ml per dye flask cat# R7182 to generate a solution 20×) to 20 μl of the same buffer. After loading for 60 min, the experiment can be run without having to remove the dye.
(§4) Compounds are prepared at a 2× fold concentration in a 96-well plate (round bottom, Costar Corning cat# 3656), by reconstituting the pre-spotted compounds in bath 1 containing 1 mM probenecid. The final concentration DMSO is 0.5%, and the amount of DMSO is normalized across the assay plate. To determine an agonist action of the compounds on muscarinic receptors, the reconstituted compounds are added (25 μl compound/well) to the cell assay plate (containing 25 μl/well) using the multi-channel robotic system of the FLIPR 3 Instrument (Molecular Devices, Sunnyvale, Calif.). To determine a functional inhibitory action of the compounds on muscarinic receptors, the reconstituted compounds are added (25 μl compound/well) to the assay plate and pre-incubated for 15 min prior to adding 25 μl of Carbachol at 3× the EC80 for each muscarinic subtype. Alternatively, the compounds can be co-applied simultaneously with the agonist. In both assay modes, the fluorescence is recorded for 60 sec (excitation wavelength is […] and emission wavelength 540 nm) using the FLIPR 3 instrument.
(§5) The potency, efficacy and selectivity of the muscarinic compounds were evaluated by screening the compound activity across the whole family (M1 to M5 cells). Compounds were also screened for activity on other proteins such as other GPCRs and ion channels to determine selectivity on M4 receptors.

[2] = target: T2, M4 muscarinic receptor (Homo sapiens, UniProt P08173); assay: Functional mobilization of intracellular calcium (FLIPR), M4-CHO cells; assay type: cell-based; settings: for Emax: 100% efficacy is the maximum response obtained using Carbachol as a control; for M4 Activity: M4-CHO cells, FLIPR calcium mobilization
T2 construct: expressed in transfected cells; host or cells: CHO (M4-CHO)
T2 sequence (P08173 1-479): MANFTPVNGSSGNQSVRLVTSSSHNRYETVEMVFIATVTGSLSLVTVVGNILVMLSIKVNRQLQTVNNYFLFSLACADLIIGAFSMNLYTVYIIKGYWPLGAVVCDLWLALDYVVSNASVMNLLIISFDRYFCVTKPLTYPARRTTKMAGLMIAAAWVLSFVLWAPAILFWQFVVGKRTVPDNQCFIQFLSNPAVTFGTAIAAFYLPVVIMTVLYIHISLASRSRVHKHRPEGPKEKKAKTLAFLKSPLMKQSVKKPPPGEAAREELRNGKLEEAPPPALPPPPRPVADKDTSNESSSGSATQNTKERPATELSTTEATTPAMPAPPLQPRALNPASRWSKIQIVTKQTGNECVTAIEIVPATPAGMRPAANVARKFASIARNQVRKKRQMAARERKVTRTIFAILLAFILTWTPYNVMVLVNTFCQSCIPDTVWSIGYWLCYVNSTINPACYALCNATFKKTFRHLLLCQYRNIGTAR
Description: as §1, §2, §3, §4, §5

Row | SMILES | Emax [1] [%] | M1 Activity [1] | Emax [2] [%] | M4 Activity [2]
1 | CCOC(=O)N1CCC(N2CCC3(CC2)CN(C(=O)NC(C)(C)C)Cc2ccccc23)CC1 [compound 53] | 25 to 100 | +++ (activity was measured to be less than 1.0 μM) | 25 to 100 | +++ (activity was measured to be less than 1.0 μM)
2 | O=C1NC2(CCN(CC3CCCCC3)CC2)c2ccccc21 [compound 54] | < 25 | + (activity was measured to be greater than 5.0 μM) | 25 to 100 | + (activity was measured to be greater than 5.0 μM)
3 | CCCCOC(=O)N1Cc2ccccc2C2(CCN(C3CCN(C(=O)OCC)CC3)CC2)C1 [compound 56] | 25 to 100 | +++ (activity was measured to be less than 1.0 μM) | 25 to 100 | +++ (activity was measured to be less than 1.0 μM)
4 | CC(=O)N1Cc2ccccc2C2(CCN(CC3CCCCO3)CC2)C1 (centres unmarked) [compound 58] | < 25 | + (activity was measured to be greater than 5.0 μM) | < 25 | + (activity was measured to be greater than 5.0 μM)
5 | CCC(=O)Oc1ccc(CN2CCC3(CC2)CN(C(C)=O)Cc2ccccc23)cc1 [compound 59] | < 25 | + (activity was measured to be greater than 5.0 μM) | < 25 | + (activity was measured to be greater than 5.0 μM)
6 | CCCCNC(=O)N1Cc2ccccc2C2(CCN(C3CC4CCC(C3)N4C(=O)OCC)CC2)C1 (centres unmarked) [compound 61] | 25 to 100 | +++ (activity was measured to be less than 1.0 μM) | 25 to 100 | +++ (activity was measured to be less than 1.0 μM)
7 | CCOC(=O)N1CCC(CN2CCC3(CC2)CN(C(=O)CC)Cc2ccccc23)CC1 [compound 63] | 25 to 100 | +++ (activity was measured to be less than 1.0 μM) | 25 to 100 | +++ (activity was measured to be less than 1.0 μM)
8 | CCOC(=O)N1C2CCC1CC(N1CCC3(CC1)CN(C(=O)C1(C(F)(F)F)CC1)Cc1ccccc13)C2 (centres unmarked) [compound 64] | 25 to 100 | +++ (activity was measured to be less than 1.0 μM) | 25 to 100 | +++ (activity was measured to be less than 1.0 μM)
9 | CC(=O)N1Cc2ccccc2C2(CCN(CC3=C(C)C=CCC3(C)C)CC2)C1 [compound 65] | 25 to 100 | + (activity was measured to be greater than 5.0 μM) | 25 to 100 | + (activity was measured to be greater than 5.0 μM)
10 | COc1ccc(CN2CCC3(CC2)CN(C(C)=O)Cc2ccccc23)cc1 [compound 66] | < 25 | + (activity was measured to be greater than 5.0 μM) | < 25 | + (activity was measured to be greater than 5.0 μM)
11 | CCOC(=O)N1C2CCC1CC(N1CCC3(CC1)CN(S(=O)(=O)c1ccc(OC(F)(F)F)cc1)Cc1ccccc13)C2 (centres unmarked) [compound 67] | 25 to 100 | ++ (activity was measured to be from 1.0 μM to 5.0 μM) | 25 to 100 | +++ (activity was measured to be less than 1.0 μM)
12 | CCOC(=O)C1CCC(N2CCC3(CC2)CN(C(C)=O)Cc2ccccc23)CC1 (centres unmarked) [compound 68] | 25 to 100 | +++ (activity was measured to be less than 1.0 μM) | 25 to 100 | +++ (activity was measured to be less than 1.0 μM)
13 | CCOC(=O)N1C2CCC1CC(N1CCC3(CC1)CN(S(=O)(=O)c1ccccc1Cl)Cc1ccccc13)C2 (centres unmarked) [compound 69] | 25 to 100 | +++ (activity was measured to be less than 1.0 μM) | 25 to 100 | +++ (activity was measured to be less than 1.0 μM)
14 | CCOC(=O)N1CCC(CN2CCC3(CC2)CN(S(C)(=O)=O)Cc2ccccc23)CC1 [compound 70] | 25 to 100 | +++ (activity was measured to be less than 1.0 μM) | 25 to 100 | +++ (activity was measured to be less than 1.0 μM)
15 | CCOC(=O)N1C2CCC1CC(N1CCC3(CC1)CN(C(=O)c1ccc(F)cc1)Cc1ccccc13)C2 (centres unmarked) [compound 71] | 25 to 100 | +++ (activity was measured to be less than 1.0 μM) | < 25 | + (activity was measured to be greater than 5.0 μM)
16 | CCOC(=O)N1CCC(CN2CCC3(CC2)CN(C(=O)Oc2ccc(F)cc2)Cc2ccccc23)CC1 [compound 72] | 25 to 100 | +++ (activity was measured to be less than 1.0 μM) | 25 to 100 | +++ (activity was measured to be less than 1.0 μM)
17 | CCOC(=O)N1C2CCC1CC(N1CCC3(CC1)CN(C(=O)OCCOC)Cc1ccccc13)C2 (centres unmarked) [compound 73] | 25 to 100 | +++ (activity was measured to be less than 1.0 μM) | 25 to 100 | +++ (activity was measured to be less than 1.0 μM)
18 | COC(=O)N1CCC(CN2CCC3(CC2)CN(C(C)=O)Cc2ccccc23)CC1 [compound 74] | 25 to 100 | +++ (activity was measured to be less than 1.0 μM) | 25 to 100 | +++ (activity was measured to be less than 1.0 μM)
19 | CC(=O)CN1CCC2(CC1)CN(C(C)=O)Cc1ccccc12 [compound 78] | 25 to 100 | + (activity was measured to be greater than 5.0 μM) | 25 to 100 | + (activity was measured to be greater than 5.0 μM)
20 | CCOC(=O)N1CCC(CN2CCC3(CC2)CN(C(=O)c2cc4ccccc4s2)Cc2ccccc23)CC1 [compound 80] | 25 to 100 | +++ (activity was measured to be less than 1.0 μM) | 25 to 100 | +++ (activity was measured to be less than 1.0 μM)
